Measured values published in the NIST ThermoML archive (doi:10.1021/je300843n).
Numbers after ± are expanded uncertainties.

Details: Liquid, Ebulliometric method (Recirculating still)

C [methane]
Details	vapor or sublimation pressure [kPa]
126.01 K	286.85 ± 1.7
127.99 K	324.94 ± 1.8
130.02 K	367.76 ± 1.9
132.01 K	413.65 ± 2
133.98 K	463.11 ± 2.1
135.99 K	517.9 ± 2.3
137.97 K	576.38 ± 2.5
140.01 K	641.51 ± 2.6
